Among the data in ChEMBL document CHEMBL5550124, “Structure-activity relationship studies of tetrahydroquinolone derivatives as GPR41 modulators” (Bioorg Med Chem Lett, 2024) are Activity and EC50 values, retold here.

Active and inactive are the calls of the source. No cut-off for these calls is given here.

Holding throughout (format): functional, cell-based
Test [1] concerns the target T1, Free fatty acid receptor 3 (Homo sapiens) (UniProt O14843).
T1 sequence (whole entry): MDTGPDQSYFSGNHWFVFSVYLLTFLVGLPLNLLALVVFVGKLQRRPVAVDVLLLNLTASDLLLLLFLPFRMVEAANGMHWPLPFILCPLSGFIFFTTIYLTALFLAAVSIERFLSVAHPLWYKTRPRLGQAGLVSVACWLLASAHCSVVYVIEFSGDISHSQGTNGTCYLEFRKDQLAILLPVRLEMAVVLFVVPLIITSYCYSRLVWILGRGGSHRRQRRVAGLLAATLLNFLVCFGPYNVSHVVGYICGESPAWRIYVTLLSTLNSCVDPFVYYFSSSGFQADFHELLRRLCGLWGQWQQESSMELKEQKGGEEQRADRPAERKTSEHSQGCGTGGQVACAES
Description: Antagonist activity at doxycyclin-induced GPR41 (unknown origin) overexpressed in HEK293 cells assessed as increase in forskolin/propionate-induced cAMP level at 1 uM.

Test [2] deals with T2, Free fatty acid receptor 3 (Homo sapiens, UniProt O14843).
T2 sequence (O14843 whole entry): T1 sequence (whole entry)
In words: Agonist activity at doxycyclin-induced GPR41 (unknown origin) overexpressed in HEK293 cells assessed as decrease in forskolin-induced cAMP level. (In general: Changes in cAMP serve as a functional read-out for many G protein-coupled receptors.)

Test [3] deals with T3, Free fatty acid receptor 2 (Homo sapiens) (UniProt O15552).
T3 sequence (whole entry): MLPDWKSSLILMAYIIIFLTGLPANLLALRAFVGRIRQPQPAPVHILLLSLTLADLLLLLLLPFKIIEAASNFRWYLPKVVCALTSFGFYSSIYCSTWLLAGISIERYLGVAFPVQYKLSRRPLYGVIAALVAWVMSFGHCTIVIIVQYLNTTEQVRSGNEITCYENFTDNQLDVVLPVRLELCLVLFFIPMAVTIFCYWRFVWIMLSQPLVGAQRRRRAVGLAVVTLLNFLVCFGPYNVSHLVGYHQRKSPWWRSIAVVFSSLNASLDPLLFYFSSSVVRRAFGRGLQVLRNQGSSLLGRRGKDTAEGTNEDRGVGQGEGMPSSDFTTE
In words: Agonist activity at GPR43 (unknown origin) overexpressed in HEK293 cells assessed as decrease in forskolin-induced cAMP level at 1 uM.

For test [4], the target named is T1, Free fatty acid receptor 3 (Homo sapiens). In words: Agonist activity at GPR41 (unknown origin) overexpressed in HEK293 cells assessed as decrease in forskolin-induced cAMP level.
For test [5] the target is unchanged. In words: Agonist activity at doxycyclin-induced GPR41 (unknown origin) overexpressed in HEK293 cells assessed as decrease in forskolin-induced cAMP level at 1 uM.
Test [6] shares this target. In words: Agonist activity at doxycyclin-induced GPR41 (unknown origin) overexpressed in HEK293 cells assessed as decrease in forskolin-induced cAMP level at 30 uM.
For test [7] the target is unchanged. Description: Agonist activity at doxycyclin-induced GPR41 (unknown origin) overexpressed in HEK293 cells assessed as decrease in forskolin-induced cAMP level at 10 uM. The settings on record: filed as agonist.

Regarding `CC1=C(C(=O)Nc2ccccc2C)C(c2ccc(-c3ccc(C)cc3)o2)C2=C(CCCC2=O)N1` (stereo unspecified), in test [1], the result was inactive.

Turning to `CC1=C(C(=O)Nc2ccccc2C)C(c2ccc(-c3cccc(F)c3)o2)C2=C(CCCC2=O)N1` (stereo unspecified), the result in test [1] was inactive. As for `CC1=C(C(=O)Nc2ccccc2C)C(c2ccc(-c3cccc(C#N)c3)o2)C2=C(CCCC2=O)N1` (stereo unspecified), the result in test [1] was inactive. With `CC1=C(C(=O)Nc2ccccc2C)C(c2ccc(-c3ccccc3OC(F)(F)F)o2)C2=C(CCCC2=O)N1` (stereo unspecified), in test [1] (filed as antagonist), the outcome was Active. As usually defined, the EC50 is the concentration that produces a half-maximal response. For `CC1=C(C(=O)Nc2cc(Cl)ccc2Cl)C(c2ccco2)C2=C(CCCC2=O)N1` (stereo unspecified), the concentration for a half-maximal effect (EC50) in test [2] worked out at 741 nM. The outcome in test [1] and in test [3] was inactive. Turning to `CCC(=O)O`, in test [1], the outcome was inactive. In addition, the result in test [3] (filed as agonist) was Active. Turning to `CC1=C(C(=O)Nc2cc(Cl)ccc2Cl)C(c2ccc(-c3ccc(F)c(F)c3F)o2)C2=C(CCCC2=O)N1` (stereo unspecified), the EC50 in test [2] turned out to be 447 nM. Besides, the outcome in test [4] and in test [3] was inactive.

Turning to `CC1=C(C(=O)Nc2ccccc2C)C(c2ccc(-c3ccccc3C#N)o2)C2=C(CCCC2=O)N1` (stereo unspecified), the result in test [1] was inactive.

On to `CC1=C(C(=O)Nc2ccccc2C)C(c2ccc(-c3ccc(F)c(F)c3)o2)C2=C(CCCC2=O)N1` (stereo unspecified), for which the 50% effective concentration (EC50) in test [2] was found to be 3400 nM. Besides, the outcome in test [5] (filed as agonist) was Active. For the same molecule, the outcome in test [4] and in test [3] was inactive. For `CC1=C(C(=O)Nc2ccccc2C)C(c2ccc(-c3ccc(Cl)cc3)o2)C2=C(CCCC2=O)N1` (stereo unspecified), the outcome in test [1] was inactive. Regarding `CC1=C(C(=O)Nc2ccccc2C)C(c2ccc(-c3ccc(F)cc3F)o2)C2=C(CCCC2=O)N1` (stereo unspecified), the result in test [5] (filed as agonist) was Active. Take `CC1=C(C(=O)Nc2cc(Cl)ccc2Cl)C(c2ccc(-c3cc(F)c(F)c(F)c3)o2)C2=C(CCCC2=O)N1` (stereo unspecified): the result in test [4] and in test [6] was inactive. Regarding `CC1=C(C(=O)Nc2ccccc2C)C(c2ccc(-c3ccc(C(F)(F)F)cc3)o2)C2=C(CCCC2=O)N1` (stereo unspecified), in test [5] (filed as agonist), the outcome was Active. In addition, the outcome in test [1] was inactive. In the case of `COc1cccc(-c2ccc(C3C(C(=O)Nc4ccccc4C)=C(C)NC4=C3C(=O)CCC4)o2)c1` (stereo unspecified), in test [1], the outcome was inactive. For `CC1=C(C(=O)Nc2ccccc2C)C(c2ccc(-c3cc(Cl)cc(Cl)c3)o2)C2=C(CCCC2=O)N1` (stereo unspecified), the outcome in test [5] was inactive. `CC1=C(C(=O)Nc2ccccc2C)C(c2ccc(-c3cc(C)cc(C)c3)o2)C2=C(CCCC2=O)N1` (stereo unspecified): the result in test [1] was inactive. For the molecule `CC1=C(C(=O)Nc2ccccc2C)C(c2ccc(-c3ccccc3)o2)C2=C(CCCC2=O)N1` (stereo unspecified), the outcome in test [7] was Active. The outcome in test [1] was inactive. Take `CC1=C(C(=O)Nc2ccccc2C)C(c2ccc(-c3cccc(C(F)(F)F)c3)o2)C2=C(CCCC2=O)N1` (stereo unspecified): the result in test [1] was inactive. For `CC1=C(C(=O)Nc2ccccc2C)C(c2ccc(-c3ccccc3F)o2)C2=C(CCCC2=O)N1` (stereo unspecified), the result in test [1] was inactive. On the same count and under the same terms, for `CC1=C(C(=O)Nc2ccccc2C)C(c2ccc(-c3cc(C(F)(F)F)cc(C(F)(F)F)c3)o2)C2=C(CCCC2=O)N1` (stereo unspecified) the value was “inactive”; for `CC1=C(C(=O)Nc2ccccc2C)C(c2ccc(-c3ccco3)o2)C2=C(CCCC2=O)N1` (stereo unspecified), “inactive”. On the same count and under the same terms, the result for `CC1=C(C(=O)Nc2ccccc2C)C(c2ccc(-c3ccc(F)cc3)o2)C2=C(CCCC2=O)N1` (stereo unspecified) reads “inactive”; that for `CC1=C(C(=O)Nc2ccccc2C)C(c2ccc(-c3cccc(Cl)c3)o2)C2=C(CCCC2=O)N1` (stereo unspecified), “inactive”. Still for that read-out and setting: the result for `CC1=C(C(=O)Nc2ccccc2C)C(c2ccc(-c3ccsc3)o2)C2=C(CCCC2=O)N1` (stereo unspecified) reads “inactive”. On to `CC1=C(C(=O)Nc2ccccc2C)C(c2ccc(-c3ccccc3Cl)o2)C2=C(CCCC2=O)N1` (stereo unspecified), for which, in test [1], the result was inactive. As for `CC1=C(C(=O)Nc2cc(Cl)ccc2Cl)C(c2ccc(-c3cc(F)cc(F)c3)o2)C2=C(CCCC2=O)N1` (stereo unspecified), the result in test [4] and in test [6] was inactive. Regarding `CC1=C(C(=O)Nc2ccccc2C)C(c2ccc(-c3ccc(F)c(F)c3F)o2)C2=C(CCCC2=O)N1` (stereo unspecified), in test [2], the EC50 amounted to 5510 nM. For the same molecule, in test [5] (filed as agonist), the outcome was Active. The outcome in test [4] and in test [3] was inactive.

For the molecule `CC1=C(C(=O)Nc2ccccc2C)C(c2ccc(-c3cc(F)c(F)c(F)c3)o2)C2=C(CCCC2=O)N1` (stereo unspecified), the 50% effective concentration (EC50) in test [2] worked out at 5890 nM. The outcome in test [5] (filed as agonist) was Active. For the same molecule, the result in test [4] and in test [3] was inactive. Turning to `CC1=C(C(=O)Nc2ccccc2C)C(c2ccc(-c3c(F)cccc3F)o2)C2=C(CCCC2=O)N1` (stereo unspecified), the result in test [5] was inactive. Consider `CC1=C(C(=O)Nc2ccccc2C)C(c2ccc(-c3ccccc3C(F)(F)F)o2)C2=C(CCCC2=O)N1` (stereo unspecified), for which the result in test [1] was inactive. On to `CC1=C(C(=O)Nc2ccccc2C)C(c2ccc(-c3cc(F)cc(F)c3)o2)C2=C(CCCC2=O)N1` (stereo unspecified), for which the EC50 in test [2] is 679 nM. The outcome in test [5] (filed as agonist) was Active. Moreover, the outcome in test [1], in test [4] and in test [3] was inactive.

With `CC1=C(C(=O)Nc2cc(Cl)ccc2Cl)C(c2ccc(-c3ccc(F)c(F)c3)o2)C2=C(CCCC2=O)N1` (stereo unspecified), the result in test [4] and in test [6] was inactive. Regarding `COc1cc(OC)cc(-c2ccc(C3C(C(=O)Nc4ccccc4C)=C(C)NC4=C3C(=O)CCC4)o2)c1` (stereo unspecified), in test [1], the result was inactive.
